For one series, the system named is HeLa cells. The experiment in a line: Cytotoxicity on HeLa host cells (MTT). In kind it is cell-based. Conditions: Homo sapiens, HeLa, median toxicity dose, cytotoxicity against host cells, 24 h. The method, then: (§1) The cytotoxicity of compounds was determined using the previously published thiazolyl blue-based colorimetric method. For this, HeLa cells were used as host cells and their ability to resist invasion by T. gondii RH strain tachyzoites in vitro was checked. The cells were plated in 96-well plates at an appropriate density to ensure exponential growth throughout the experimental period (3 × 10^3 cells per well) and then allowed to adhere for 24 h at 37 °C. The cells were infected with T. gondii (1.5 × 10^4 tachyzoites/well), followed by incubation for 24 h. All compounds were prepared in dimethyl sulfoxide (DMSO) at a stock concentration of 100 mM. Serial dilutions (1–1000 μM) of each compound were tested. Spiramycin was used as a positive control. After 24 h of incubation, 10 μL of MTT solution were added to each well and cells were incubated for a further 2 h. The optical density (OD) was read on a microplate reader at a wavelength of 492 nm. The IC50 in HeLa cells, IC50 in T. gondii and selectivity index were calculated using Microsoft Excel.

For series [1], the system named is T. gondii RH strain tachyzoites. The experiment in a line: In vitro T. gondii growth inhibition in HeLa host cells (MTT). It is filed as cell-based, Toxoplasma gondii. The conditions noted are these: for SI (selectivity index): IC50 in HeLa cells/IC50 in T. gondii; for IC50: Toxoplasma gondii, median inhibitory concentration, tachyzoite inhibition, HeLa host cells, 24 h. The procedure: as §1

For orientation: IC50 means the concentration that inhibits the measured activity by half. Lower therefore signals greater potency in that assay. By melting point is commonly meant the temperature of the solid-liquid transition.

Consider `COc1ccc(-c2nncn2CCOC(=O)[C@]23CC[C@@H](C)[C@H](C)[C@H]2C2=CC[C@@H]4[C@@]5(C)CCC(O)C(C)(C)[C@@H]5CC[C@@]4(C)[C@]2(C)CC3)cc1` (stereo partly drawn) [3e, 2 –(3-(4-methoxyphenyl)-4H-1,2,4-triazol-4-yl)ethyl(1S,2R,4aS,6aS,6bR,8aR,12aR,12bR,14bS)-10-hydroxy-1,2,6a,6b,9,9,12a-heptamethyl-1,3,4,5,6,6a,6b,7,8,8a,9,10,11,12,12a,12b,13,14b-octadecahydropicene-4a(2H)-carboxylate], for which the melting point lay within 233 to 235 °C. For the same compound, the IC50 in the series with HeLa cells is 78.2 µM. Moreover, in series [1], the “SI (selectivity index)” value is on record as 0.67 and the half-maximal inhibitory concentration (IC50) amounted to 116 µM.
With `C[C@H]1[C@H](C)CC[C@]2(C(=O)O)CC[C@]3(C)C(=CC[C@@H]4[C@@]5(C)C/C(=C\c6cn(-c7ccccc7I)nn6)C(=O)C(C)(C)[C@@H]5CC[C@]43C)[C@H]12` [1h, (1S,2R,4aS,6aS,6bR,8aR,12aR,12bR,14bS,E)-11-((1–(2-iodophenyl)-1H-1,2,3-triazol-4-yl)methylene)-1,2,6a,6b,9,9,12a-heptamethyl-10-oxo-1,3,4,5,6,6a,6b,7,8,8a,9,10,11,12,12a,12b,13,14b-octadecahydropicene-4a(2H)-carboxylic acid], in the series on HeLa cells, the IC50 came out at 230 µM. In addition, in series [1], the “SI (selectivity index)” value is 0.84 and the IC50 was found to be 274 µM.
Regarding `Cc1ccc(-n2cc(CNC(=O)COC(=O)[C@]34CC[C@@H](C)[C@H](C)[C@H]3C3=CC[C@@H]5[C@@]6(C)CCC(O)C(C)(C)[C@@H]6CC[C@@]5(C)[C@]3(C)CC4)nn2)cc1` (stereo partly drawn) [2d, (1S,2R,4aS,6aS,6bR,8aR,12aR,12bR,14bS)-2-oxo-2-((1-p-tolyl-1H-1,2,3-triazol-4-yl)methylamino)ethyl-10-hydroxy-1,2,6a,6b,9,9,12a-heptamethyl-1,2,3,4,4a,5,6,6a,6b,7,8,8a,9,10,11,12,12a,12b,13,14b-icosahydropicene-4a-carboxylate], the melting point was in the range of 186 to 187 °C. The same compound gave an IC50 in the series with HeLa cells of over 1000 µM. In addition, the half-inhibitory concentration (IC50) in series [1] was over 1000 µM.
`C[C@H]1[C@H](C)CC[C@]2(C(=O)O)CC[C@]3(C)C(=CC[C@@H]4[C@@]5(C)C/C(=C\c6cn(-c7cccc(F)c7)nn6)C(=O)C(C)(C)[C@@H]5CC[C@]43C)[C@H]12` [1c, (1S,2R,4aS,6aS,6bR,8aR,12aR,12bR,14bS,E)-11-((1–(3-fluorophenyl)-1H-1,2,3-triazol-4-yl)methylene)-1,2,6a,6b,9,9,12a-heptamethyl-10-oxo-1,3,4,5,6,6a,6b,7,8,8a,9,10,11,12,12a,12b,13,14b-octadecahydropicene-4a(2H)-carboxylic acid] showed a melting point of over 250 °C. In the series on HeLa cells, this compound registered a 50% inhibitory concentration (IC50) of over 1000 µM. In series [1], this compound showed a concentration for half-maximal inhibition (IC50) of over 1000 µM.
As to `COc1cc(-n2cc(/C=C3\C[C@]4(C)[C@H]5CC=C6[C@@H]7[C@@H](C)[C@H](C)CC[C@]7(C(=O)O)CC[C@@]6(C)[C@]5(C)CC[C@H]4C(C)(C)C3=O)nn2)cc(OC)c1OC` [1j, (1S,2R,4aS,6aS,6bR,8aR,12aR,12bR,14bS,E)-1,2,6a,6b,9,9,12a-heptamethyl-10-oxo-11-((1–(3,4,5-trimethoxyphenyl)-1H-1,2,3-triazol-4-yl)methylene)-1,3,4,5,6,6a,6b,7,8,8a,9,10,11,12,12a,12b,13,14b-octadecahydropicene-4a(2H)-carboxylic acid], the 50% inhibitory concentration (IC50) in the series with HeLa cells was determined as 354 µM. In series [1], the “SI (selectivity index)” value was found to be 1.17 and it took 301 µM to reach half-maximal inhibition (IC50).
`C[C@H]1[C@H](C)CC[C@]2(C(=O)O)CC[C@]3(C)C(=CC[C@@H]4[C@@]5(C)C/C(=C\c6cn(-c7ccccc7)nn6)C(=O)C(C)(C)[C@@H]5CC[C@]43C)[C@H]12` [1a, (1S,2R,4aS,6aS,6bR,8aR,12aR,12bR,14bS,E)-1,2,6a,6b,9,9,12a-heptamethyl-10-oxo-11-((1-phenyl-1H-1,2,3-triazol-4-yl)methylene)-1,3,4,5,6,6a,6b,7,8,8a,9,10,11,12,12a,12b,13,14b-octadecahydropicene-4a(2H)-carboxylic acid] yielded a melting point of over 250 °C. Besides, the IC50 in the series with HeLa cells is over 1000 µM. In series [1], the IC50 was over 1000 µM.
`C[C@H]1[C@H](C)CC[C@]2(C(=O)OCCn3cnnc3-c3ccc(Cl)cc3)CC[C@]3(C)C(=CC[C@@H]4[C@@]5(C)CCC(O)C(C)(C)[C@@H]5CC[C@]43C)[C@H]12` (stereo partly drawn) [3b, 2 –(3-(4-chlorophenyl)-4H-1,2,4-triazol-4-yl)ethyl(1S,2R,4aS,6aS,6bR,8aR,12aR,12bR,14bS)-10-hydroxy-1,2,6a,6b,9,9,12a-heptamethyl-1,3,4,5,6,6a,6b,7,8,8a,9,10,11,12,12a,12b,13,14b-octadecahydropicene-4a(2H)-carboxylate] yielded a melting point of 245 to 246 °C. The IC50 in the series with HeLa cells was found to be 2.4 µM. For the same compound, in series [1], the “SI (selectivity index)” value amounted to 0.36 and the midpoint of inhibition, the IC50, lay at 6.7 µM.
In turn, `COc1ccc(-n2cc(CNC(=O)COC(=O)[C@]34CC[C@@H](C)[C@H](C)[C@H]3C3=CC[C@@H]5[C@@]6(C)CCC(O)C(C)(C)[C@@H]6CC[C@@]5(C)[C@]3(C)CC4)nn2)cc1` (stereo partly drawn) [2c, (1S,2R,4aS,6aS,6bR,8aR,12aR,12bR,14bS)-2-((1–(4-methoxyphenyl)-1H-1,2,3-triazol-4-yl)methylamino)-2-oxoethyl-10-hydroxy-1,2,6a,6b,9,9,12a-heptamethyl-1,2,3,4,4a,5,6,6a,6b,7,8,8a,9,10,11,12,12a,12b,13,14b-icosahydropicene-4a-carboxylate] showed a melting point of 180 to 181 °C. In the series with HeLa cells, the IC50 is over 1000 µM. In series [1], this compound had an IC50 of over 1000 µM.
For `C[C@H]1[C@H](C)CC[C@]2(C(=O)OCCn3cnnc3-c3ccccc3)CC[C@]3(C)C(=CC[C@@H]4[C@@]5(C)CCC(O)C(C)(C)[C@@H]5CC[C@]43C)[C@H]12` (stereo partly drawn) [3a, 2 –(3-phenyl-4H-1,2,4-triazol-4-yl)ethyl(1S,2R,4aS,6aS,6bR,8aR,12aR,12bR,14bS)-10-hydroxy-1,2,6a,6b,9,9,12a-heptamethyl-1,3,4,5,6,6a,6b,7,8,8a,9,10,11,12,12a,12b,13,14b-octadecahydropicene-4a(2H)-carboxylate], the IC50 stood at 102 µM with HeLa cells and 88 µM in series [1]. Besides, the “SI (selectivity index)” value in series [1] is listed as 1.15.
Regarding `C[C@H]1[C@H](C)CC[C@]2(C(=O)O)CC[C@]3(C)C(=CC[C@@H]4[C@@]5(C)C/C(=C\c6cn(-c7ccccc7Br)nn6)C(=O)C(C)(C)[C@@H]5CC[C@]43C)[C@H]12` [1g, (1S,2R,4aS,6aS,6bR,8aR,12aR,12bR,14bS,E)-11-((1–(2-bromophenyl)-1H-1,2,3-triazol-4-yl)methylene)-1,2,6a,6b,9,9,12a-heptamethyl-10-oxo-1,3,4,5,6,6a,6b,7,8,8a,9,10,11,12,12a,12b,13,14b-octadecahydropicene-4a(2H)-carboxylic acid], the values for the IC50 (in the series on HeLa cells; in series [1]) were 240 µM and 302 µM, respectively. Moreover, the “SI (selectivity index)” value in series [1] is reported as 0.80.
For `C[C@H]1[C@H](C)CC[C@]2(C(=O)OCCn3cnnc3-c3ccc(F)cc3)CC[C@]3(C)C(=CC[C@@H]4[C@@]5(C)CCC(O)C(C)(C)[C@@H]5CC[C@]43C)[C@H]12` (stereo partly drawn) [3c, 2 –(3-(4-fluorophenyl)-4H-1,2,4-triazol-4-yl)ethyl(1S,2R,4aS,6aS,6bR,8aR,12aR,12bR,14bS)-10-hydroxy-1,2,6a,6b,9,9,12a-heptamethyl-1,3,4,5,6,6a,6b,7,8,8a,9,10,11,12,12a,12b,13,14b-octadecahydropicene-4a(2H)-carboxylate] the same measures were 88.2 µM, 61.4 µM and 1.44.

(Values after article PMC6407578, “Synthesis and biological evaluation of ursolic acid derivatives bearing triazole moieties as potential anti-Toxoplasma gondii agents” (Journal of Enzyme Inhibition and Medicinal Chemistry, 2019).)
